ChEMBL document CHEMBL1909046, “DrugMatrix in vitro pharmacology data”

What was measured:
[1] = biological target: Sodium-dependent noradrenaline transporter (Homo sapiens, UniProt P23975); assay: DRUGMATRIX: Norepinephrine Transporter radioligand binding (ligand: [125I] RTI-55); type: cell membranes, MDCK, Membrane; settings: Not Active = under 50% inhibition at 10 µM; for Ki: read-out: Ki
[2] = biological target: T1, Type-2 angiotensin II receptor (Homo sapiens, UniProt P50052); type: cell-based; settings: cho-k1; also: in other assays of this panel Not Active means under 50% inhibition at 10 µM
T1 sequence (P50052 whole entry): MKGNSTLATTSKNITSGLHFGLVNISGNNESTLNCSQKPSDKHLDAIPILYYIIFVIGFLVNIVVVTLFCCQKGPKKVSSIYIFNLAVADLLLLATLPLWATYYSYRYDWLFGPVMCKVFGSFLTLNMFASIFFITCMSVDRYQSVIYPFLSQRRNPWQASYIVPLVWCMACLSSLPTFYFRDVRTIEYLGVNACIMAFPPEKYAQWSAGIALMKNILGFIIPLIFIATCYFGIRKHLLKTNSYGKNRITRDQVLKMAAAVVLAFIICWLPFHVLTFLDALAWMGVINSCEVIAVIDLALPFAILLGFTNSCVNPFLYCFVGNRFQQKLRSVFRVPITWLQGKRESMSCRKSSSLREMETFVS

[3] = DRUGMATRIX: ATPase, Na+/K+ enzyme inhibition (substrate: ATP); type: tissue-based, Sus scrofa, Heart; settings: Not Active = under 50% inhibition at 10 µM
[4] = DRUGMATRIX: Nicotinic Acetylcholine radioligand binding (ligand: [125I] Epibatidine); type: cell membranes, Membrane; settings: imr-32; Not Active = under 50% inhibition at 10 µM
[5] = DRUGMATRIX: Potassium Channel [KATP] radioligand binding (ligand: [3H] Glyburide); type: cell membranes, Membrane; settings: hit-t15; Not Active = under 50% inhibition at 10 µM
[6] = biological target: T2, Interstitial collagenase (Homo sapiens, UniProt P03956); type: tissue-based, Rheumatoid synovial fibroblasts;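 also: MMP-1 enzyme inhibition assay using a peptide substrate; in other assays of this panel Not Active means under 50% inhibition at 10 µM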
T2 sequence (P03956 whole entry): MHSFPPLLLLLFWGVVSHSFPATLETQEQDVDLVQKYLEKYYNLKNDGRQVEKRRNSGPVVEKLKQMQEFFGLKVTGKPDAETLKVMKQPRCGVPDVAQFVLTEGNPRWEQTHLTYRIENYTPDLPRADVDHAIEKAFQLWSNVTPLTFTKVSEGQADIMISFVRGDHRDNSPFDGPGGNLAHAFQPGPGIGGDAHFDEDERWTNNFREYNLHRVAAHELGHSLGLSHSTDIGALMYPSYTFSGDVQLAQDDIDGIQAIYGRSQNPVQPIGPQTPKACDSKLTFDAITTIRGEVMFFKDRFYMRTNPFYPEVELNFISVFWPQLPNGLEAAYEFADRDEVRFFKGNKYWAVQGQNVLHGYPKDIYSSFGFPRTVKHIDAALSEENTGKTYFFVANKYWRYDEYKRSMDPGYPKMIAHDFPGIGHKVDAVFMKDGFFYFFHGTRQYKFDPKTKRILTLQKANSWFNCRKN

[7] = biological target: Epidermal growth factor receptor (Homo sapiens, UniProt P00533); assay: DRUGMATRIX: Protein Tyrosine Kinase, EGF Receptor enzyme inhibition (substrate: Poly(Glu:Tyr)); type: cell-based, Insect cells; settings: Not Active = under 50% inhibition at 10 µM
Epidermal growth factor receptor, sequence (P00533 whole entry): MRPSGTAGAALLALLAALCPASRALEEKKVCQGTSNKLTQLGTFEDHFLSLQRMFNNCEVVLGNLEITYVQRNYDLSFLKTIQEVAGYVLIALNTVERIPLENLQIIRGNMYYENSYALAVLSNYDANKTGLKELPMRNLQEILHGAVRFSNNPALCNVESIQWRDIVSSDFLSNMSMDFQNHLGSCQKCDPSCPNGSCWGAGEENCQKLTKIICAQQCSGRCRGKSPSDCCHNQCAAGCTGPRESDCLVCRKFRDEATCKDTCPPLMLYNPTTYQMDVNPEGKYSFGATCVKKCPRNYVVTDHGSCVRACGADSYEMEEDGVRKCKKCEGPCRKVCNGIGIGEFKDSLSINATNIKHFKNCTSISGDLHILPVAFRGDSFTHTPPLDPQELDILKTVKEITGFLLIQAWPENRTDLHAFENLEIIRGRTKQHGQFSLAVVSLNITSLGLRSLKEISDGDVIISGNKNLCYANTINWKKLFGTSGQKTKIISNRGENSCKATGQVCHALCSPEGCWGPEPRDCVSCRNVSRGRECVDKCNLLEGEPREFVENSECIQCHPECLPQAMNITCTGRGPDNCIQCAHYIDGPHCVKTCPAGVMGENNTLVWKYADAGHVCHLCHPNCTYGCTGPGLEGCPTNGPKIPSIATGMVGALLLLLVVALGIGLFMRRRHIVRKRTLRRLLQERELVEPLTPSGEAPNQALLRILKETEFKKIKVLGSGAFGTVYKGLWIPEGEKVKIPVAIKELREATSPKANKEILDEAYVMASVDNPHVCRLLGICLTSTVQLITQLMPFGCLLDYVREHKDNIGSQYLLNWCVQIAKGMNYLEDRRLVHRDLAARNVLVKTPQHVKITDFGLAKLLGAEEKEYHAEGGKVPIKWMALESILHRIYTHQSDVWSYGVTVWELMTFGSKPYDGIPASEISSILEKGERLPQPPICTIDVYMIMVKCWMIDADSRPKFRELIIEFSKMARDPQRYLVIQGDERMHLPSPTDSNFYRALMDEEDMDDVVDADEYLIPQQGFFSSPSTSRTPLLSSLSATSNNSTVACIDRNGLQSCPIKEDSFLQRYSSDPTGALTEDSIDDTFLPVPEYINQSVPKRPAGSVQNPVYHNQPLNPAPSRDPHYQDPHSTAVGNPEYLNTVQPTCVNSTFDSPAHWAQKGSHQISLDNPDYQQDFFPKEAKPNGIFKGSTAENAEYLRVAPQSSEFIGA

Sodium-dependent noradrenaline transporter, sequence (P23975 whole entry): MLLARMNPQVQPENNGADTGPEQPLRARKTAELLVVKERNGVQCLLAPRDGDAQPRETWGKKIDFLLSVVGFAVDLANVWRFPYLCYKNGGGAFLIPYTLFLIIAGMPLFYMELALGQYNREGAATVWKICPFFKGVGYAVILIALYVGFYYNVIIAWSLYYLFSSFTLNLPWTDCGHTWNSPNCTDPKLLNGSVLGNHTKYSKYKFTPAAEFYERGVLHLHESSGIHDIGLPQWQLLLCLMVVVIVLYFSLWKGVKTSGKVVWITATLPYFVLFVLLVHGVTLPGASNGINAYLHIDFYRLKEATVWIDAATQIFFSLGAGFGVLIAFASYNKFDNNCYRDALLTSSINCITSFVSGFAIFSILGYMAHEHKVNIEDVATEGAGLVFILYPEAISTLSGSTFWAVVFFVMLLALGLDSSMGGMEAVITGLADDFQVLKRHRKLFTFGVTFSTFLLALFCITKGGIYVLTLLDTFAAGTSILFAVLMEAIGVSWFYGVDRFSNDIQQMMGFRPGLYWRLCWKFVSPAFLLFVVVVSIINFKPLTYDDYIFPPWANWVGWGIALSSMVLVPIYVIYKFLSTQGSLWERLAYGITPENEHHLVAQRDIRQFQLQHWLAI

Row | Compound | IC50 ([1]; mdck) | IC50 [2] | IC50 [3] | Ki [3] | IC50 [4] | Ki [4] | IC50 [5] | Ki [5] | IC50 [6] | IC50 ([7]; insect cells) | IC50 ([1]; read-out: IC50) | Ki [1] | IC50 ([7]; read-out: IC50)
1 | Nn1nnc2ccccc21 | Not Active | Not Active | Not Active | Not Active | Not Active | Not Active | Not Active | Not Active | Not Active | Not Active | – | – | –
2 | CC[C@]1(O)CC[C@H]2[C@@H]3CCC4=CCCC[C@@H]4[C@H]3CC[C@@]21C | – | Not Active | Not Active | Not Active | Not Active | Not Active | Not Active | Not Active | Not Active | Not Active | 2.1 µM | 2.08 µM | –
3 | N[C@@H](Cc1ccc(F)cc1)C(=O)O | Not Active | Not Active | Not Active | Not Active | Not Active | Not Active | Not Active | Not Active | Not Active | Not Active | – | – | –
4 | CCOC(=O)[C@H](CCc1ccccc1)N[C@@H](C)C(=O)N1Cc2ccccc2C[C@H]1C(=O)O | Not Active | Not Active | Not Active | Not Active | Not Active | Not Active | Not Active | Not Active | Not Active | Not Active | – | – | –
5 | O=C(c1ccccc1Cl)N1CCC(Cc2ccccc2)CC1 | Not Active | Not Active | Not Active | Not Active | Not Active | Not Active | Not Active | Not Active | Not Active | Not Active | – | – | –
6 | CCOC(=O)[C@H](CCc1ccccc1)N[C@@H](C)C(=O)N1CCC[C@H]1C(=O)O | Not Active | Not Active | Not Active | Not Active | Not Active | Not Active | Not Active | Not Active | Not Active | Not Active | – | – | –
7 | Clc1cc2c(cc1Cl)Oc1cc(Cl)c(Cl)cc1O2 [2,3,7,8-TETRACHLORODIBENZO-P-DIOXIN] | Not Active | Not Active | Not Active | Not Active | Not Active | Not Active | Not Active | Not Active | Not Active | Not Active | – | – | –
8 | C=C1/C(=C\C=C2/CCC[C@]3(C)[C@@H]([C@H](C)CCCC(C)C)CC[C@@H]23)C[C@@H](O)C[C@@H]1O [ALFACALCIDOL] | – | Not Active | Not Active | Not Active | Not Active | Not Active | Not Active | Not Active | Not Active | Not Active | – | – | –
9 | CCCCCC[C@H]1C(=O)O[C@H](C)[C@H](NC(=O)c2cccc(NC=O)c2O)C(=O)O[C@@H](C)[C@@H]1OC(=O)CC(C)C [ANTIMYCIN A] | Not Active | Not Active | Not Active | Not Active | Not Active | Not Active | Not Active | Not Active | Not Active | Not Active | – | – | –
10 | C[C@@H]1CC[C@H]2[C@@H](C)C(=O)O[C@@H]3O[C@@]4(C)CC[C@@H]1[C@]32OO4 [ARTEMISININ] | Not Active | Not Active | Not Active | Not Active | Not Active | Not Active | Not Active | Not Active | Not Active | Not Active | – | – | –
11 | CO[C@H]1[C@@H](O)[C@H](N)[C@@H](O[C@H]2O[C@H]([C@H](C)N)CC[C@H]2N)[C@H](O)[C@@H]1N(C)C(=O)CN [ASTROMICIN] | Not Active | Not Active | Not Active | Not Active | Not Active | Not Active | Not Active | Not Active | Not Active | Not Active | – | – | –
12 | [N-]=[N+]=CC(=O)OC[C@H](N)C(=O)O [AZASERINE] | Not Active | Not Active | Not Active | Not Active | Not Active | Not Active | Not Active | Not Active | Not Active | Not Active | – | – | –
13 | CC[C@H]1OC(=O)[C@H](C)[C@@H](O[C@H]2C[C@@](C)(OC)[C@@H](O)[C@H](C)O2)[C@H](C)[C@@H](O[C@@H]2O[C@H](C)C[C@H](N(C)C)[C@H]2O)[C@](C)(O)C[C@@H](C)CN(C)[C@H](C)[C@@H](O)[C@]1(C)O [AZITHROMYCIN] | Not Active | Not Active | Not Active | Not Active | Not Active | Not Active | Not Active | Not Active | Not Active | Not Active | – | – | –
14 | CC(C)(C)c1ccc(S(=O)(=O)/C=C/C#N)cc1 [BAY-11-7085] | Not Active | Not Active | Not Active | Not Active | Not Active | Not Active | Not Active | Not Active | Not Active | Not Active | – | – | –
15 | CCc1oc2ccccc2c1C(=O)c1cc(Br)c(O)c(Br)c1 [BENZBROMARONE] | Not Active | Not Active | Not Active | Not Active | Not Active | Not Active | Not Active | Not Active | Not Active | Not Active | – | – | –
16 | O=c1cc(-c2ccccc2)oc2ccc3ccccc3c12 [BETA-NAPHTHOFLAVONE] | Not Active | Not Active | Not Active | Not Active | Not Active | Not Active | Not Active | Not Active | Not Active | Not Active | – | – | –
17 | CC(C)C[C@H]1C(=O)N2CCC[C@H]2[C@]2(O)O[C@](NC(=O)[C@@H]3C=C4c5cccc6[nH]c(Br)c(c56)C[C@H]4N(C)C3)(C(C)C)C(=O)N12 [BROMOCRIPTINE] | Not Active | Not Active | Not Active | Not Active | Not Active | Not Active | Not Active | Not Active | Not Active | Not Active | – | – | –
18 | CS(=O)(=O)OCCCCOS(C)(=O)=O [BUSULFAN] | Not Active | Not Active | Not Active | Not Active | Not Active | Not Active | Not Active | Not Active | Not Active | Not Active | – | – | –
19 | O=C(/C=C/c1ccc(O)c(O)c1)OCCc1ccccc1 [CAFFEIC ACID PHENETHYL ESTER] | – | Not Active | Not Active | Not Active | Not Active | Not Active | Not Active | Not Active | Not Active | – | 3.79 µM | 3.76 µM | 1.01 µM
20 | C#C[C@]1(O)CC[C@H]2[C@@H]3CCC4=Cc5oncc5C[C@]4(C)[C@H]3CC[C@@]21C [DANAZOL] | – | Not Active | Not Active | Not Active | Not Active | Not Active | Not Active | Not Active | Not Active | Not Active | – | – | –
21 | C#C[C@]1(O)CC[C@H]2[C@@H]3CCc4cc(O)ccc4[C@H]3CC[C@@]21C [ETHINYL ESTRADIOL] | – | Not Active | Not Active | Not Active | Not Active | Not Active | Not Active | Not Active | Not Active | Not Active | – | – | –
22 | C[C@]12CCC(=O)C=C1CC[C@@H]1[C@@H]2[C@@H](O)C[C@@]2(C)[C@H]1CC[C@]2(O)C(=O)CO [HYDROCORTISONE] | – | Not Active | Not Active | Not Active | Not Active | Not Active | Not Active | Not Active | Not Active | Not Active | – | – | –
23 | CC[C@H](C)C(=O)O[C@H]1C[C@@H](C)C=C2C=C[C@H](C)[C@H](CC[C@@H]3C[C@@H](O)CC(=O)O3)[C@H]21 [LOVASTATIN] | – | Not Active | Not Active | Not Active | Not Active | Not Active | – | – | Not Active | Not Active | 8.75 µM | 8.68 µM | –
